This assay addresses T1, sigma-1 receptor (Cavia porcellus, UniProt Q60492).
T1 construct: from tissue; host or cells: guinea pig brain membranes
Briefly: [3H](+)-pentazocine binding assay for the sigma-1 receptor in guinea pig brain membranes. The following applies: [3H](+)-pentazocine 0.5 nM; for Sigma-1 Inhibition percent (0.01 μM): compound 0.01 μM; for Sigma-1 Inhibition percent (0.1 μM): compound 0.1 μM. Here is the method: Some of the compounds synthesized according to the procedures described above were tested for their activity as sigma-1 inhibitors. The following protocol was followed:
Brain membrane preparation and binding assays for the […] were performed as described (DeHaven-Hudkins et al., 1992) with some modifications. In brief, guinea pig brains were homogenized in 10 vols. (w/v) of Tris-HCl 50 mM 0.32 M sucrose, pH 7.4, with a Kinematica Polytron PT 3000 at 15000 r.p.m. for 30 s. The homogenate was centrifuged at 1000 g for 10 min at 4° C. and the supernatants collected and centrifuged again at 48000 g for 15 min at 4° C. The pellet was resuspended in 10 volumes of Tris-HCl buffer (50 mM, pH 7.4), incubated at 37° C. for 30 min, and centrifuged at 48000 g for 20 min at 4° C. Following this, the pellet was resuspended in fresh Tris-HCl buffer (50 mM, pH 7.4) and stored on ice until use.
Each assay tube contained 10 μL of [^3H](+)-pentazocine (final concentration of 0.5 nM), 900 μL of the tissue suspension to a final assay volume of 1 mL and a final tissue concentration of approximately 30 mg tissue net weight/mL. Non-specific binding was defined by addition of a final concentration of 1 μM haloperidol. All tubes were incubated at 37° C. for 150 min before termination of the reaction by rapid filtration over Schleicher & Schuell GF 3362 glass fibre filters [previously soaked in a solution of 0.5% polyethylenimine for at least 1 h]. Filters were then washed with four times with 4 mL of cold Tris-HCl buffer (50 mM, pH 7.4). Following addition of scintillation cocktail, the samples were allowed to equilibrate overnight. The amount of bound radioactivity was determined by liquid scintillation spectrometry using a Wallac Winspectral 1414 liquid scintillation counter. Protein concentrations were determined by the method of Lowry et al. (1951).

T1 sequence (Q60492 whole entry): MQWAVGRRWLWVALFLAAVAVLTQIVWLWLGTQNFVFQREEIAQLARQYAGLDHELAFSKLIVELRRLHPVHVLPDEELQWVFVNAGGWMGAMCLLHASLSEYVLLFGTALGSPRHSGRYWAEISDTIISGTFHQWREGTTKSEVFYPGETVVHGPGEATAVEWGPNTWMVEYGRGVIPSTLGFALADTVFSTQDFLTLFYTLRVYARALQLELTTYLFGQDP

In the case of `Clc1ccc(-c2nn(CCCN3CCCCCC3)nc2-c2ccccc2)cc1` [compound 6], the “Sigma-1 Inhibition percent (0.01 μM)” value worked out at 36.5 and the “Sigma-1 Inhibition percent (0.1 μM)” value was determined as 52.5.

Consider `Clc1ccc(-c2nn(CCCCN3CCCCC3)nc2-c2ccccc2)cc1` [compound 10], for which the “Sigma-1 Inhibition percent (0.01 μM)” value is given as 26.1 and the “Sigma-1 Inhibition percent (0.1 μM)” value is 59.1.

For the compound `Cc1nn(CCCN2CCCCC2)nc1-c1ccccc1` [compound 19], the “Sigma-1 Inhibition percent (0.01 μM)” value is recorded as 31.2 and the “Sigma-1 Inhibition percent (0.1 μM)” value is 78.5.

As to `c1ccc(-c2cnn(CCCN3CCCCC3)n2)cc1` [compound 20], the “Sigma-1 Inhibition percent (0.01 μM)” value is on record as 43.6 and the “Sigma-1 Inhibition percent (0.1 μM)” value came out at 82.2.

For the compound `Fc1cc(Br)ccc1-c1cnn(CCCN2CCCCC2)n1` [compound 21], the “Sigma-1 Inhibition percent (0.01 μM)” value is listed as 25.8 and the “Sigma-1 Inhibition percent (0.1 μM)” value was 83.4.

These data come from patent US8193223B2, “1,2,3-triazole derivatives as sigma receptor inhibitors” (Laboratorios Del Dr. Esteve, S.A., priority 2006, dated 2012).
